# Measured values published in US12059400B2, “Medical compound” (VERA SALUS RICERCA S.R.L., priority 2017, dated 2024).
# Columns and labels:
# [1] = tested on: human ovarian carcinoma cells (OVCAR-3); assay: Cell proliferation, crystal violet method; format: cell-based
# [2] = tested on: human skin fibroblasts (WS1); assay: Cell proliferation of normal cells, crystal violet method; format: cell-based; conditions: at the indicated concentrations (not given); FIG. 17
# Procedure: The compound according to the invention, and in particular the synthetic quercetin derivatives described and illustrated herein were investigated in vitro by using human tumour cells and assessing their impact on the tumour proliferative capacity, with regard to the tumours described above. In particular, the following human tumour cell lines were assessed experimentally: 1) HCT116, colon adenocarcinoma cells; 2) H1299, lung adenocarcinoma cells; 3) A375, melanoma cells, and 4) A431, squamous skin cell carcinoma; 5) 786-0, renal carcinoma cells; 6) PC3, prostate carcinoma cells; 7) BT549, mammary carcinoma cells; 8) CAL27, tongue carcinoma cells (belonging to the head-and-neck carcinomas); 9) HepG2, hepatocellular carcinoma cells; 10) PANC-1, pancreas carcinoma cells; 11) T24, bladder carcinoma cells; 12) OVCAR-3, ovarian carcinoma cells. In addition, a normal human cell line, WS1 (skin fibroblasts) was also treated with the novel synthetic compounds. Cell proliferation was quantified by the crystal violet method with a spectrophotometer. In short, after acquiring serial images (0, 24 and 48 hrs) with the EVOS XL Cell Imaging System microscope (Thermo Fisher Scientific), the cells imaged at 48 hrs were fixed with paraformaldehyde (4%) and stained with Crystal Violet (1%). Then, the specific absorbance (λ=590 nm) at 48 hrs was measured with a spectrophotometer (Infinite®200 PRO, Tecan). Data analysis was carried out by using ad-hoc Excel files for graphical representation and statistical processing (t-test). […] This tool allows cell growth to be monitored from electrical impedance-derived quantitative values (the so-called Cell Index) measured by tiny electrodes located at the base of the culture wells. Proliferation is monitored for several days (5-7) by setting a Cell Index per minute measure on the instrument. The data are analysed by processing various parameters calculated by the dedicated software, such as the cell duplication time, the slope and the Max Cell Index.
"IC50 ([1]; crystal violet, spectrophotometer, read-out: IC50 anti-proliferative effect, OCC - (OVCAR)) [µM]",Substance,"OVCAR-3 cell growth vs vehicle control ([1]; 60 μM, FIG. 11a, 11b)",proliferation of normal human skin fibroblasts (WS1) vs vehicle control [2]
79.2,"2-(3,4-dihydroxyphenyl)-5,7-dihydroxy-4-oxo-4H-chromen-3-yl palmitate [Compound 5]",significantly inhibit,–
–,"2-(3,4-Dihydroxyphenyl)-3-hexyloxy-5,7-dihydroxy-4H-chromen-4-one [Compound 2]",–,do not disrupt
